Test results published in PubChem BioAssay AID328 (DTP/NCI, 2004).
Values joined by “and” are separate entries in the source; they are usually repeats but may differ in a detail not shown here. Equal entries are not always repeated. Inconclusive results and toxic doses are left out. Residues, ends and D or L forms follow the SMILES beside them.

System: BDF1 mice, P388 leukemia ip, median survival T/C
Experiment: NCI In Vivo Anticancer Drug Screen. Data for tumor model P388 Leukemia (intraperitoneal) in B6D2F1 (BDF1) mice
Conditions: endpoint: median survival time, higher = longer survival
In short: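 Transplantable tumour in mice; compound vs vehicle dosing; survival scored; ratio of treated to control reported.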

[1] = dose: 50.0 mg/kg/injection, schedule: Q04DX003 (ip), vehicle: Klucel (hydroxypropylcellulose) (HPC)
[2] = dose: 100.0 mg/kg/injection, schedule: Q04DX003 (ip), vehicle: Klucel (hydroxypropylcellulose) (HPC)
[3] = dose: 200.0 mg/kg/injection, schedule: Q04DX003 (ip), vehicle: Klucel (hydroxypropylcellulose) (HPC)
[4] = dose: 50.0 mg/kg/injection, schedule: Q01DX009 (ip), vehicle: saline with Tween-80
[5] = dose: 100.0 mg/kg/injection, schedule: Q01DX009 (ip), vehicle: saline with Tween-80
[6] = dose: 50.0 mg/kg/injection, schedule: Q04DX003 (ip), vehicle: water
[7] = dose: 100.0 mg/kg/injection, schedule: Q04DX003 (ip), vehicle: water
[8] = dose: 100.0 mg/kg/injection, schedule: Q04DX003 (ip), vehicle: saline with Tween-80
[9] = dose: 200.0 mg/kg/injection, schedule: Q01DX009 (ip), vehicle: saline with Tween-80
[10] = dose: 400.0 mg/kg/injection, schedule: Q01DX009 (ip), vehicle: saline with Tween-80

## N=C(N)SCCC(=O)O
[1]
  T/C: 109 % of control
dose: 100.0 mg/kg/injection, schedule: Q01DX009 (ip), vehicle: Klucel (hydroxypropylcellulose) (HPC)
  T/C: 100 % of control
[2]
  T/C: 100 % of control
dose: 200.0 mg/kg/injection, schedule: Q01DX009 (ip), vehicle: Klucel (hydroxypropylcellulose) (HPC)
  T/C: 110 % of control
[3]
  T/C: 109 % of control
dose: 400.0 mg/kg/injection, schedule: Q01DX009 (ip), vehicle: Klucel (hydroxypropylcellulose) (HPC)
  T/C: 90 % of control

## O=C(O)C1CC/C=C\CCC1 (centres undefined)
dose: 100.0 mg/kg/injection, schedule: Q04DX003 (sc), vehicle: olive oil, sesame oil, peanut oil
  T/C: 100 % of control
dose: 200.0 mg/kg/injection, schedule: Q04DX003 (sc), vehicle: olive oil, sesame oil, peanut oil
  T/C: 100 % of control
dose: 400.0 mg/kg/injection, schedule: Q04DX003 (sc), vehicle: olive oil, sesame oil, peanut oil
  T/C: 91 % of control

## N#C/C(=C\c1cc(Cl)cc(Cl)c1O)c1nc2ccccc2[nH]1
[4]
  T/C: 93 % of control
[5]
  T/C: 93 % of control

## O=C(c1ccccc1)c1cccc(Cl)c1
[1]
  T/C: 104 % of control
[2]
  T/C: 90 % of control
[3]
  T/C: 104 % of control

## Nc1c(SSc2ccc3ccccc3c2N)ccc2ccccc12
dose: 6.25 mg/kg/injection, schedule: Q01DX001 (ip), vehicle: Klucel (hydroxypropylcellulose) (HPC)
  T/C: 109 % of control
dose: 12.5 mg/kg/injection, schedule: Q01DX001 (ip), vehicle: Klucel (hydroxypropylcellulose) (HPC)
  T/C: 109 % of control
dose: 25.0 mg/kg/injection, schedule: Q01DX001 (ip), vehicle: Klucel (hydroxypropylcellulose) (HPC)
  T/C: 116 % of control

## CC(C)C(NC(=O)C(NC(=O)C(CCCN=C(N)N)NC(=O)C(N)CCCCN)C(C)C)C(N)=O (centres undefined) (H-KRVV-NH2; configuration not given here)
dose: 12.5 mg/kg/injection, schedule: Q04DX003 (ip), vehicle: water
  T/C: 101 % of control
dose: 25.0 mg/kg/injection, schedule: Q04DX003 (ip), vehicle: water
  T/C: 97 % of control
[6]
  T/C: 107 % of control
[7]
  T/C: 92 % of control
dose: 200.0 mg/kg/injection, schedule: Q04DX003 (ip), vehicle: water
  T/C: 93 % of control

## CN1CCN(C(=O)Cc2c[nH]c3ccccc23)CC1
dose: 6.25 mg/kg/injection, schedule: Q01DX009 (ip), vehicle: saline with Tween-80
  T/C: 105 % of control
dose: 12.5 mg/kg/injection, schedule: Q04DX003 (ip), vehicle: saline with Tween-80
  T/C: 111 % of control
dose: 25.0 mg/kg/injection, schedule: Q04DX003 (ip), vehicle: saline with Tween-80
  T/C: 101 % of control
[4]
  T/C: 95 % of control
dose: 50.0 mg/kg/injection, schedule: Q04DX003 (ip), vehicle: saline with Tween-80
  T/C: 104 % of control
[5]
  T/C: 89 % of control
[8]
  T/C: 113 % of control

## Cc1cc(C)c2c(=O)[nH][nH]c2n1
[5]
  T/C: 96 % of control
[9]
  T/C: 100 % of control
[10]
  T/C: 94 % of control

## O=S(=O)(O)C1CCCCC1O (centres undefined)
dose: 100.0 mg/kg/injection, schedule: Q04DX002 (ip), vehicle: saline with Tween-80
  T/C: 98 % of control
dose: 200.0 mg/kg/injection, schedule: Q04DX002 (ip), vehicle: saline with Tween-80
  T/C: 101 % of control

## CC(C(=O)O)N(CC(=O)O)CC(=O)O.[Co+2].[NH-]CC(=O)O (centres undefined)
dose: 12.5 mg/kg/injection, schedule: Q01DX009 (ip), vehicle: water
  T/C: 99 % of control
dose: 25.0 mg/kg/injection, schedule: Q01DX009 (ip), vehicle: water
  T/C: 108 % of control
dose: 50.0 mg/kg/injection, schedule: Q01DX009 (ip), vehicle: water
  T/C: 105 % of control
[6]
  T/C: 103 % of control
[7]
  T/C: 96 % of control

## CCOC(=O)C(O)c1cccc(OC)c1 (centres undefined)
[5]
  T/C: 100 % of control
dose: 100.0 mg/kg/injection, schedule: Q04DX003 (ip), vehicle: saline sonified
  T/C: 118 % of control
[9]
  T/C: 100 % of control
dose: 200.0 mg/kg/injection, schedule: Q04DX003 (ip), vehicle: saline sonified
  T/C: 100 % of control
[10]
  T/C: 104 % of control
dose: 400.0 mg/kg/injection, schedule: Q04DX003 (ip), vehicle: saline sonified
  T/C: 100 % of control

## COc1c(Cl)cc2c(c1OC)N(C)C1N3C(=O)C4(C)SSC3(C(=O)N4C)C(O)C21O (centres undefined)
dose: 0.12 mg/kg/injection, schedule: Q01DX009 (ip), vehicle: Klucel (hydroxypropylcellulose) (HPC)
  T/C: 86 % of control
dose: 0.25 mg/kg/injection, schedule: Q01DX009 (ip), vehicle: Klucel (hydroxypropylcellulose) (HPC)
  T/C: 109 % of control

## CN(N=O)C(=O)NC(C=O)C(O)C(O)C(O)CO (centres undefined)
dose: 25.0 mg/kg/injection, schedule: Q01DX010 (ip), vehicle: saline
  T/C: 113 % of control

## O=NN(CCCl)C(=O)NC12CC3CC(CC(C3)C1)C2
dose: 5.0 mg/kg/injection, schedule: Q04DX003 (ip), vehicle: Klucel (hydroxypropylcellulose) (HPC)
  T/C: 100 % of control
dose: 15.0 mg/kg/injection, schedule: Q04DX003 (ip), vehicle: Klucel (hydroxypropylcellulose) (HPC)
  T/C: 95 % of control
dose: 30.0 mg/kg/injection, schedule: Q04DX003 (ip), vehicle: Klucel (hydroxypropylcellulose) (HPC)
  T/C: 104 % of control
dose: 37.5 mg/kg/injection, schedule: Q04DX003 (ip), vehicle: Klucel (hydroxypropylcellulose) (HPC)
  T/C: 166 % of control
dose: 75.0 mg/kg/injection, schedule: Q04DX003 (ip), vehicle: Klucel (hydroxypropylcellulose) (HPC)
  T/C: 250 % of control
[8]
  T/C: 285 % of control
dose: 150.0 mg/kg/injection, schedule: Q04DX003 (ip), vehicle: Klucel (hydroxypropylcellulose) (HPC)
  T/C: 250 % of control
dose: 175.0 mg/kg/injection, schedule: Q04DX003 (ip), vehicle: saline
  T/C: 103 % of control
dose: 200.0 mg/kg/injection, schedule: Q04DX003 (ip), vehicle: saline with Tween-80
  T/C: 285 % of control
dose: 400.0 mg/kg/injection, schedule: Q04DX003 (ip), vehicle: saline with Tween-80
  T/C: 285 % of control

## COc1ccc(OC(=O)Nc2ccccc2OC)cc1
[2]
  T/C: 91 % of control
[3]
  T/C: 91 % of control
dose: 400.0 mg/kg/injection, schedule: Q04DX003 (ip), vehicle: Klucel (hydroxypropylcellulose) (HPC)
  T/C: 87 % of control

## CN=S(=O)(OCC1CCC1COS(=O)(=NC)c1ccc(C)cc1)c1ccc(C)cc1 (centres undefined)
dose: 12.5 mg/kg/injection, schedule: Q01DX009 (ip), vehicle: saline with Tween-80
  T/C: 109 % of control
dose: 12.5 mg/kg/injection, schedule: Q01DX009 (ip), vehicle: saline
  T/C: 93 % of control
dose: 25.0 mg/kg/injection, schedule: Q01DX009 (ip), vehicle: saline with Tween-80
  T/C: 100 % of control
dose: 25.0 mg/kg/injection, schedule: Q01DX009 (ip), vehicle: saline
  T/C: 93 % of control
[4]
  T/C: 90 % of control and 120 % of control
dose: 50.0 mg/kg/injection, schedule: Q01DX009 (ip), vehicle: saline
  T/C: 90 % of control
[5]
  T/C: 107 % of control and 114 % of control
dose: 100.0 mg/kg/injection, schedule: Q01DX009 (ip), vehicle: saline
  T/C: 93 % of control
[9]
  T/C: 116 % of control

## CC1=Nc2ccccc2C(=O)N(C)N1
[4]
  T/C: 100 % of control
[5]
  T/C: 104 % of control
[9]
  T/C: 97 % of control

## Oc1ccc2ccccc2c1N=Nc1ccc(Cl)cc1
[5]
  T/C: 104 % of control
[9]
  T/C: 95 % of control
[10]
  T/C: 95 % of control

## COc1cccc(CC2=C3CCCN(C(=O)c4ccccc4)C3CCC2=O)c1 (centres undefined)
dose: 100.0 mg/kg/injection, schedule: Q01DX001 (ip), vehicle: saline sonified
  T/C: 90 % of control
dose: 200.0 mg/kg/injection, schedule: Q01DX001 (ip), vehicle: saline sonified
  T/C: 90 % of control
dose: 400.0 mg/kg/injection, schedule: Q01DX001 (ip), vehicle: saline sonified
  T/C: 104 % of control
